Laboratory results from the NIST ThermoML archive (doi:10.1016/j.jct.2016.12.033).
± gives the expanded uncertainty stated by the source.

Assays:
[1] = 101.3 kPa, Liquid; for viscosity: Capillary tube (Ostwald / Ubbelohde) method; for mass density: Pycnometric method
[2] = mn = molality of the nth substance listed, in mol/kg; conditions: 101.3 kPa, Liquid, m2 = 0; for viscosity: Capillary tube (Ostwald / Ubbelohde) method; for mass density: Pycnometric method

viscosity ([1]; 275.15 K) | mass density ([1]; 275.15 K) | viscosity ([1]; 277.15 K) | mass density ([1]; 277.15 K) | viscosity ([1]; 279.15 K) | mass density ([1]; 279.15 K) | viscosity ([2]; 275.15 K) | mass density ([2]; 275.15 K) | viscosity ([2]; 277.15 K) | mass density ([2]; 277.15 K) | viscosity ([2]; 279.15 K) | mass density ([2]; 279.15 K) | Structure (SMILES)
1.674 ± 0.035 mPa·s | 999.94 ± 0.28 kg/m3 | 1.567 ± 0.032 mPa·s | 999.97 ± 0.28 kg/m3 | 1.472 ± 0.03 mPa·s | 999.94 ± 0.28 kg/m3 |  |  |  |  |  |  | O [water]
 |  |  |  |  |  | 1.674 ± 0.035 mPa·s | 999.94 ± 0.28 kg/m3 | 1.567 ± 0.032 mPa·s | 999.97 ± 0.28 kg/m3 | 1.472 ± 0.03 mPa·s | 999.94 ± 0.27 kg/m3 | O [water] + Cc1ncc(CO)c(CO)c1O.Cl
 |  |  |  |  |  | 1.674 ± 0.035 mPa·s | 999.94 ± 0.28 kg/m3 | 1.567 ± 0.032 mPa·s | 999.97 ± 0.28 kg/m3 | 1.472 ± 0.03 mPa·s | 999.94 ± 0.28 kg/m3 | O [water] + Cc1ncc(C[n+]2csc(CCO)c2C)c(N)n1.Cl.[Cl-]
 |  |  |  |  |  | 1.674 ± 0.035 mPa·s | 999.94 ± 0.29 kg/m3 | 1.567 ± 0.032 mPa·s | 999.97 ± 0.28 kg/m3 | 1.472 ± 0.03 mPa·s | 999.94 ± 0.28 kg/m3 | O [water] + O=C1O[C@H]([C@@H](O)CO)C([O-])=C1O.[Na+]
